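Growth conditions: 96-well plates. Treatment: test compound, 48 hours, 5 concentrations. Analysis: linear interpolation between bracketing concentrations; unreached endpoints set to highest concentration. GI50: concentration for 50% inhibition of growth. Definition used: TGI = concentration required for complete inhibition of growth.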
Assays:
Assay in all cases: NCI-60 cell line screen, 48 h
SW-620 colon = test system: SW-620 colon
KM12 colon = test system: KM12 colon
CAKI-1 renal = test system: CAKI-1 renal
SNB-19 CNS = test system: SNB-19 CNS
HCC-2998 colon = test system: HCC-2998 colon
OVCAR-8 ovarian = test system: OVCAR-8 ovarian
NCI-H23 lung = test system: NCI-H23 lung
U251 CNS = test system: U251 CNS
HCT-116 colon = test system: HCT-116 colon
UACC-257 melanoma = test system: UACC-257 melanoma
MOLT-4 leukemia = test system: MOLT-4 leukemia
SF-268 CNS = test system: SF-268 CNS
DMS 273 small cell lung = test system: DMS 273 small cell lung

Cc1ccc(S(=O)(=O)OC2C(C3COC(C)(C)O3)OC3OC(C)(C)OC32)cc1 (centres undefined)
TGI (SW-620 colon): > 100 µM | TGI (KM12 colon): > 100 µM | TGI (CAKI-1 renal): > 100 µM | TGI (SNB-19 CNS): > 100 µM | TGI (HCC-2998 colon): > 100 µM | TGI (OVCAR-8 ovarian): > 100 µM | TGI (NCI-H23 lung): > 100 µM | TGI (U251 CNS): > 100 µM | TGI (HCT-116 colon): > 100 µM | TGI (UACC-257 melanoma): > 100 µM | TGI (MOLT-4 leukemia): > 100 µM | TGI (SF-268 CNS): > 100 µM

Clc1c(Cl)c2c(Cl)c(Cl)c1C[P+](c1ccccc1)(c1ccccc1)CC[P+](c1ccccc1)(c1ccccc1)Cc1c(Cl)c(Cl)c(c(Cl)c1Cl)C[P+](c1ccccc1)(c1ccccc1)CC[P+](c1ccccc1)(c1ccccc1)C2
TGI (SW-620 colon): 13.6 µM | TGI (KM12 colon): 6.12 µM | TGI (CAKI-1 renal): 33.1 µM | TGI (SNB-19 CNS): 13.4 µM | TGI (HCC-2998 colon): 14.5 µM | TGI (OVCAR-8 ovarian): 19 µM | TGI (DMS 273 small cell lung): 6.59 µM | TGI (NCI-H23 lung): 5.25 µM | TGI (U251 CNS): 12.4 µM | TGI (HCT-116 colon): 9.71 µM | TGI (UACC-257 melanoma): 6.38 µM | TGI (MOLT-4 leukemia): 10.5 µM | TGI (SF-268 CNS): 12.6 µM

Cc1ccc(-c2csc(=Nc3c(C)n(C)n(-c4ccccc4)c3=O)n2CCO)cc1
TGI (KM12 colon): > 100 µM | TGI (CAKI-1 renal): > 100 µM | TGI (SNB-19 CNS): > 100 µM | TGI (HCC-2998 colon): > 100 µM | TGI (OVCAR-8 ovarian): > 100 µM | TGI (NCI-H23 lung): > 100 µM | TGI (U251 CNS): > 100 µM | TGI (UACC-257 melanoma): > 100 µM | TGI (MOLT-4 leukemia): > 100 µM | TGI (SF-268 CNS): > 100 µM

Cn1c(-c2ccc(/C=N\N3CCN(/N=C/c4ccc(-c5c[n+]6ccsc6n5C)cc4)CC3)cc2)c[n+]2ccsc12
TGI (SW-620 colon): > 100 µM | TGI (KM12 colon): > 100 µM | TGI (CAKI-1 renal): > 100 µM | TGI (SNB-19 CNS): > 100 µM | TGI (OVCAR-8 ovarian): > 100 µM | TGI (NCI-H23 lung): > 100 µM | TGI (U251 CNS): > 100 µM | TGI (HCT-116 colon): > 100 µM | TGI (UACC-257 melanoma): 67.9 µM | TGI (MOLT-4 leukemia): > 100 µM | TGI (SF-268 CNS): > 100 µM

O=[n+]1c2ccccc2n([O-])c2cc(Br)ccc21
TGI (SW-620 colon): 75.7 µM | TGI (KM12 colon): 30.9 µM | TGI (CAKI-1 renal): 17.2 µM | TGI (SNB-19 CNS): > 100 µM | TGI (HCC-2998 colon): 39.9 µM | TGI (OVCAR-8 ovarian): 47.9 µM | TGI (NCI-H23 lung): 49.6 µM | TGI (U251 CNS): 78.8 µM | TGI (HCT-116 colon): > 100 µM | TGI (UACC-257 melanoma): 34.9 µM | TGI (MOLT-4 leukemia): 2.19 µM | TGI (SF-268 CNS): 55.3 µM

CC(C)[C@](O)(C(=O)OCC1CC[N+]2([O-])CC[C@@H](O)C12)[C@H](C)O (some centres undefined)
TGI (SW-620 colon): > 375 µM | TGI (KM12 colon): > 375 µM | TGI (CAKI-1 renal): > 375 µM | TGI (SNB-19 CNS): > 375 µM | TGI (HCC-2998 colon): > 375 µM | TGI (OVCAR-8 ovarian): > 375 µM | TGI (DMS 273 small cell lung): > 375 µM | TGI (NCI-H23 lung): > 375 µM | TGI (U251 CNS): > 375 µM | TGI (HCT-116 colon): > 256 µM | TGI (UACC-257 melanoma): > 375 µM | TGI (MOLT-4 leukemia): > 375 µM | TGI (SF-268 CNS): > 375 µM

CC#C[I+]c1ccccc1
TGI (KM12 colon): 40.1 µM | TGI (CAKI-1 renal): 27.9 µM | TGI (SNB-19 CNS): > 100 µM | TGI (HCC-2998 colon): 56.6 µM | TGI (OVCAR-8 ovarian): 31.2 µM | TGI (DMS 273 small cell lung): 27.8 µM | TGI (NCI-H23 lung): 39.7 µM | TGI (U251 CNS): 29.1 µM | TGI (HCT-116 colon): 35.3 µM | TGI (UACC-257 melanoma): 51.7 µM | TGI (MOLT-4 leukemia): 42.2 µM | TGI (SF-268 CNS): 35.1 µM

COc1cc2c3c(n(CCCNCCCNCCCn4c5c(c6ccccc6c4=O)C(=O)c4ccccc4-5)c(=O)c2cc1OC)-c1cc2c(cc1C3=O)OCO2
GI50 (SW-620 colon): < 0.01 µM | TGI (SW-620 colon): 0.197 µM | GI50 (CAKI-1 renal): 0.158 µM | TGI (CAKI-1 renal): 2.53 µM | GI50 (NCI-H23 lung): < 0.01 µM | TGI (NCI-H23 lung): 0.0826 µM | GI50 (U251 CNS): < 0.01 µM | TGI (U251 CNS): 0.0205 µM | GI50 (HCT-116 colon): < 0.015 µM | TGI (HCT-116 colon): 0.263 µM | GI50 (MOLT-4 leukemia): < 0.01 µM | TGI (MOLT-4 leukemia): > 100 µM | GI50 (SF-268 CNS): < 0.01 µM | TGI (SF-268 CNS): 0.0217 µM

CCCCN1C(=O)NC(Cc2ccccc2)C1=O (centres undefined)
TGI (SW-620 colon): > 100 µM | TGI (KM12 colon): > 100 µM | TGI (CAKI-1 renal): > 100 µM | TGI (SNB-19 CNS): > 100 µM | TGI (HCC-2998 colon): > 100 µM | TGI (OVCAR-8 ovarian): > 100 µM | TGI (DMS 273 small cell lung): > 100 µM | TGI (NCI-H23 lung): > 100 µM | TGI (U251 CNS): > 100 µM | TGI (UACC-257 melanoma): > 100 µM | TGI (SF-268 CNS): > 100 µM

CC(C)(C)C(=O)C(C(c1ccccc1)N1CCOCC1)N1CCOCC1 (centres undefined)
TGI (SW-620 colon): > 100 µM | TGI (KM12 colon): > 100 µM | TGI (CAKI-1 renal): > 100 µM | TGI (SNB-19 CNS): > 100 µM | TGI (HCC-2998 colon): > 100 µM | TGI (OVCAR-8 ovarian): > 100 µM | TGI (NCI-H23 lung): > 100 µM | TGI (U251 CNS): > 100 µM | TGI (HCT-116 colon): > 100 µM | TGI (UACC-257 melanoma): > 100 µM | TGI (MOLT-4 leukemia): > 100 µM | TGI (SF-268 CNS): > 100 µM

CCO[C@]12C[C@H](OC)[C@@]3(O)CC(C1[C@H]3O)C13C4C2[C@H](OC)C1[C@](COC)(CN4CC)[C@H](O)C[C@@H]3OC (some centres undefined)
TGI (SW-620 colon): > 100 µM | TGI (SNB-19 CNS): > 100 µM | TGI (HCC-2998 colon): > 100 µM | TGI (OVCAR-8 ovarian): > 100 µM | TGI (DMS 273 small cell lung): > 100 µM | TGI (NCI-H23 lung): > 100 µM | TGI (HCT-116 colon): > 100 µM | TGI (UACC-257 melanoma): > 100 µM | TGI (MOLT-4 leukemia): > 100 µM | TGI (SF-268 CNS): > 100 µM

COc1ccc(N2C(=O)C3c4[nH]c5cccc(C)c5c4C4CCC(C(C)(C)C)CC4C3C2=O)cc1 (centres undefined)
TGI (SW-620 colon): > 10 µM | TGI (KM12 colon): > 10 µM | TGI (CAKI-1 renal): > 10 µM | TGI (SNB-19 CNS): > 10 µM | TGI (HCC-2998 colon): > 10 µM | TGI (OVCAR-8 ovarian): > 10 µM | TGI (NCI-H23 lung): > 10 µM | TGI (U251 CNS): > 10 µM | TGI (HCT-116 colon): > 10 µM | TGI (MOLT-4 leukemia): > 10 µM | TGI (SF-268 CNS): > 10 µM

CCCCCCCCCCCCCCCCOCC(COP(=O)([O-])OCC[N+](C)(C)C)OCCCCCCCCCCCCCCCC (centres undefined)
TGI (SW-620 colon): > 100 µM | TGI (KM12 colon): > 100 µM | TGI (CAKI-1 renal): > 100 µM | TGI (SNB-19 CNS): > 100 µM | TGI (HCC-2998 colon): > 100 µM | TGI (OVCAR-8 ovarian): > 100 µM | TGI (DMS 273 small cell lung): > 100 µM | TGI (NCI-H23 lung): > 100 µM | TGI (U251 CNS): > 100 µM | TGI (HCT-116 colon): > 100 µM | TGI (UACC-257 melanoma): > 100 µM | TGI (MOLT-4 leukemia): > 100 µM | TGI (SF-268 CNS): > 100 µM

Reference: PubChem BioAssay (NCI)
